Six molecules from patent US9999601B2, “Composition and method for inhibition of nerve transmission” (NEUROQUEST INC., priority 2007, dated 2018) can be followed below.

SMILES strings stand for the structures. Entries after “also recorded” stand apart in the source; their conditions may differ.

The target of experiment [1] is delayed rectifier current (Ikv), specifically Ikv 1.5 subtype (Homo sapiens, UniProt P22460). Briefly: Whole cell patch clamp recordings (K+ channels). Format: cell-based. Conditions: for inhibition of delayed rectifying potassium channels (in words): 10 ppm (10 mcmol or 10 ppm); for percent inhibition of the delayed rectifier potassium current: at a concentration of Geranium oil that gave 40% inhibition; for inhibition of delayed rectifying potassium channels, comparison in words: concentration not given. The method, then:
Whole cell patch clamp recordings (Axopatch 200B) were made using borosilicate patch pipettes of resistance 3-8 MΩ with an intracellular solution utilizing potassium chloride as the current carrier. Current clamp recording were conducted holding the membrane potential at −60 mV to characterize the firing property of the cells. Voltage clamp was performed to investigate the delayed rectifier current (Ikv), specifically Ikv 1.5 subtype. Statistical significance was assessed using ANOVA followed by Duncan's multiple-range test with P<0.05 taken as indicating significance. […] A synthetic blend of geranium oil containing proportions of geraniol and citronellol similar to natural geranium oil, but with other components removed, was compared to the following ratios of geraniol:citronellol; 2:8, 3:7, 4:6 and geranium oil. The synthetic blend of geranium oil gave a 50% inhibition of the delayed rectifying potassium channel current compared to a 40% inhibition for natural geranium oil.
In general terms: In patch-clamp work, channel activity is measured electrically.

Experiment [2] relates to mouse hippocampal brain slice neurons (cortical neuron). Briefly: Patch clamp electrophysiological studies of mouse hippocampal slices. The experiment is classed as cell-based. Conditions: for inhibition of nerve transmission (in words): animal cortical nerve cells and dorsal root ganglion cells; for membrane currents, current-voltage relation (in words): bath-applied, 10 mV steps from −110 to −20 mV, FIG. 1, FIG. 2A-C. Here is the method: Studies were conducted on mouse hippocampal brain slice preparations. In terms of the slice preparations, […] coronal brain slices were prepared from animals housed in a 12 hour light (ZT 0-12):12 hour dark (ZT 12-24) environment. Animals were anesthetized with isoflurane, decapitated, the brain rapidly removed and placed in ice cold, oxygenated (95% 02:5% C02), bicarbonate-buffered artificial cerebral spinal fluid (ACSF). A 1 cm^2 block of brain tissue containing the hippocampi was glued to a cutting surface and coronal slices were prepared using a Leica VT1000S microtome (Leica Microsystems). All slices were left to equilibrate for approximately one hour prior to the transfer to a recording chamber. Once transferred to the chamber, slices were continuously superfused with oxygenated ACSF at a rate of 3 ml/min @30° C. and recordings are generally made for the next 6-12 hours. Patch microelectrodes (5-8MΩ) made from borosilicate glass (Garner Glass Co.) and filled with K^+based internal patch solution composed of: (in mM) 120 K-acetate, 40 HEPES, 10 EGTA, 6 MgCl2, nystatin (450 μg/ml) or gramicidin B (5 μg/ml) and pluronic acid F127.
The perforated patch recording technique and will be used (Korn & Horn, 1989) and viable Hippocampal neurons were visually targeted using Infrared Differential Interference Contrast (IR-DIC) microscopy using a Leica DM LFSA scope. […] Recordings were made from 3 different patch rigs equipped with either […] patch clamp amplifiers interfaced via a Digidata 1322A to a PC computer or on, in terms of the studies performed on dissociated DRG neurons, a Zeiss Axoscop 200 inverted microscope equipped with an Axopatch 200B/Digidata 1322A using Pclamp 9.0 and Axoscope 9 software.
Test compounds were bath-applied by superfusion to examine for changes in excitability and/or attenuation of ion channels and the effects of compounds on evoked synaptic responses. Stimulating electrodes (concentric or bipolar) were placed within the slices and in accordance with the well known fiber tract pathways of passage for the
Superimposed responses to a series of 10 mV steps (250 ms) ranged from −110 to −20 mV are shown, (A) in control condition, (B) in presence of geraniol, and (C) after washout of the drug.
Typical response of a cortical neuron following a depolarizing current pulse of 0.4 nA is shown in FIGS. 2D, 2E and 2F, (D) in control condition, (E) in presence of geraniol, and (F) after recovery.
Mean current-voltage plots for 6 cortical neurons are plotted in FIG. 1.
Samples 1, 2 and 6 are examples of naturally-derived geranium oils; sample 3 is the synthetic composition as set out in Table 1, sample 4 is pure geraniol, sample 5 is pure citronellol and sample 4+5 is 50:50 (by volume) combination of geraniol and citronellol. Net current represents the difference between current measured in control condition and in presence of tested compound, in response to the same voltage step.

Experiment [3] concerns post herpetic neuralgia. Description: Case study, post herpetic neuralgia, topical pure geraniol. As to conditions: over 30 minutes after topical application; one subject. Format: in vivo, human. From the text:
person, Ht 68 inches, Weight 162 lb. BMI 24.7. History of shingles 4 years prior to study with residual pain (post herpetic neuralgia). The subject tried Neurontin™ (Pfizer, U.S.) for 1 week with only some help and quit 3-4 years prior to this study.
They had moderate pain that made it hard to concentrate on things other than the pain. […] They could sleep, but had to keep changing positions to do so. They described the post-herpetic neuralgia as the worst thing to have happened to […]. The subject's pain decreased by 78% with pure geraniol over the course of 30 minutes after topical application as measured on a standard visual analog scale.

The test system of experiment [4] is post-herpetic neuralgia. Briefly: Human screening of synthetic geranium oil and geraniol in neuropathic pain (post-herpetic neuralgia). Format: in vivo. As to conditions: topical pure geraniol, human neuropathic pain sufferers. The method, then: A synthetic blend of geranium oil (Table 1) was also tested in a panel of human neuropathic pain sufferers known to respond to naturally derived geranium oil. The geranium oil was topically applied in therapeutically effective amounts to areas of the human body affected with symptoms of neuropathic pain. Dosage amounts depended on the size of the patient's affected areas. […] Once administered, a typical positive response is a significant reduction in pain, often in minutes. A significant number of patients in the panel of neuropathic pain sufferers preferred the pain relieving effects of the synthetic blend of geranium oil, with known purified constituents, over the natural geranium oil.
Since natural geranium oil relieves neuropathic pain and inhibits the delayed rectifying potassium channel, and since synthetic geranium oil, geraniol, and citronellol all inhibit the delayed rectifying potassium channel, synthetic geranium oil and geraniol were tested on patients with post-herpetic neuralgia. A synthetic blend of geranium oil was tested in patients with post-herpetic neuralgia that were positive responders to natural geranium oil. […] Pure geraniol was then tested in these subjects.

delayed rectifier current (Ikv), specifically Ikv 1.5 subtype, sequence (P22460 whole entry): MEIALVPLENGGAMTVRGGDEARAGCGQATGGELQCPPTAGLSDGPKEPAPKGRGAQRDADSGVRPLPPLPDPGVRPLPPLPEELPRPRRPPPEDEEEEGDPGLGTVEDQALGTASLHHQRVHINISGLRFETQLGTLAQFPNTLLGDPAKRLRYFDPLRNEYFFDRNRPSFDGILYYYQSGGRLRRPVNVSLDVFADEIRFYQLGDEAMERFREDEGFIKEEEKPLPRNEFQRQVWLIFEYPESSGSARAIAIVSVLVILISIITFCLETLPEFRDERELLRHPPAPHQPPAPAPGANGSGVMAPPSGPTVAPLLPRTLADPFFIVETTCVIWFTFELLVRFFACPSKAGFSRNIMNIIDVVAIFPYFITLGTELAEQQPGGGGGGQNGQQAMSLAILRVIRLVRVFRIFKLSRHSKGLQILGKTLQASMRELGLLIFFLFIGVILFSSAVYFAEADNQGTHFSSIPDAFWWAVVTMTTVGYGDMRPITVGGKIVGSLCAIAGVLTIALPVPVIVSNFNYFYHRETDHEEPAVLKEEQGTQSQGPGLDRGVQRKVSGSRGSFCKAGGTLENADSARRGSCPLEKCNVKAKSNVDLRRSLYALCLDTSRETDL

For the molecule `C=C(C)C1CC=C(C)C(=O)C1` (centres unmarked) [carvone, Carvone], in experiment [1], the “inhibition of delayed rectifying potassium channels (in words)” value was “positive” and the “percent inhibition of the delayed rectifier potassium current” value (shortened to “percent inhibition”) was determined as 22%.
As to `CC(C)=CCCC(C)CCO` (centres unmarked) [citronellol, 3,7-dimethyloct-6-en-1-ol], the “inhibition of nerve transmission (in words)” value in experiment [2] is reported as “effectively inhibit nerve transmission”. In addition, in experiment [1], the “inhibition of delayed rectifying potassium channels (in words)” value is on record as “positive”; the “percent inhibition” value amounted to 27%; the “inhibition of delayed rectifying potassium channels, comparison in words” value is given as “highest amount of inhibition; also recorded: highest activity”.
As for `CC(C)=CCC/C(C)=C/CO` [geraniol, 2,6-Octadien-1-ol, 3,7-dimethyl-, (2E)-], in experiment [2], the “inhibition of nerve transmission (in words)” value is on record as “effectively inhibit nerve transmission” and the “membrane currents, current-voltage relation (in words)” value (from here on “membrane currents”) is “reduction in the membrane current amplitude; also recorded: reduction of membrane currents”. The “membrane currents” value in experiment [2] (listed as geraniol (test compound #4)) is given as “reduction of membrane currents”. Further, the “membrane currents” value in experiment [2] (listed as sample #4 (Geraniol)) is given as “reduction of membrane currents”. For the same molecule, in experiment [2] (most negative voltage step (−110 mV), FIG. 3), the “net current reduction, rank among tested samples” value is reported as “greatest inhibition”. Also, the “action potentials (in words)” value in experiment [2] (voltage steps or depolarizing current pulse of 0.4 nA, FIG. 2) is on record as “inhibition of action potential”. Besides, in experiment [3], the “decrease of pain on visual analog scale” value is listed as 78%. In experiment [4], the “neuropathic pain relief (in words)” value is reported as “almost immediate pain relief; also recorded: greatest effect on neuropathic pain relief”. For the same molecule, in experiment [1], the “inhibition of delayed rectifying potassium channels (in words)” value is listed as “positive”; the “percent inhibition” value was 26%; the “inhibition of delayed rectifying potassium channels, comparison in words” value is “highest amount of inhibition; also recorded: highest activity”.
For `C=CC(C)(O)CCC=C(C)C` (centres unmarked) [linalool, Linalool], in experiment [1], the “inhibition of delayed rectifying potassium channels (in words)” value is recorded as “positive” and the “percent inhibition” value came to 18%.
On the same counts, the results for `CC(C)[C@@H]1CC[C@@H](C)CC1=O` [menthone, Menthone] are “positive” and 22%.
Taken in the same sequence, the figures for `CC(C)=CC1CC(C)CCO1` (centres unmarked) [rose oxide, Rose Oxide] were “positive” and 14%.
